Where a SMILES comes first, the peptide text is derived from it. Bridges are numbered along the chain shown (N, C = ends). Where no end group is shown, it is not given here. The star is where a group is joined. IRDye800CW = CC1(C)C(/C=C/C2=C(Oc3ccc(S(=O)(=O)O)cc3)C(=C/C=C3/N(CCCCS(=O)(=O)O)c4ccc(S(=O)(=O)O)cc4C3(C)C)/CCC2)=[N+](CCCCCC(=O)*)c2ccc(S(=O)(=O)[O-])cc21; IRDye800 = IRDye800 fluorophore
Experiments:
[1] = taken up by the liver and secreted into the bile; cited from earlier work
[2] = cited from earlier work
[3] = optical characterization of NIR imaging agents (spectra, extinction coefficient, quantum yield, lifetime, relative brightness); assay type: physicochemical; settings: for Emission maximum / Excitation maximum: 1 μM solution; for Extinction Coefficient × 10^4: at 785 nm; for Lifetime: frequency domain method, 785/830 (ex/em), ICG as standard
Method: Fluorescence quantum yield was determined by the comparative method of Williams et al. 1983 (Williams, Winfield and Miller. Analyst 109, 1067, 1983) using the quantum yield of ICG (in water) at 785/830 nm (24) as a standard. Lifetime measurements were obtained using the frequency domain-method using ICG as a standard. The IC50 of IRDye800-ABD was determined using a competitive binding assay modified from Dennis et al. 2002 (ibid). Briefly, MAXISORP fluorescent plates (Nunc, Rochester, N.Y.) were coated with mouse serum albumin (Sigma St Louis, Mo.) and incubated overnight at 4 degrees. Plates were washed three times with PBS+0.05% Tween20 (Sigma St. Louis, Mo.) to remove unbound albumin and were then blocked with TBS in casein (Pierce Rockford, Ill.) for 1 hour at 25 degrees. Equal volumes of unlabeled and labeled peptide were combined in centrifuge tubes for five different concentrations (0.05-10 nM) of unlabeled ABD peptide. The resulting peptide solution was then plated on the albumin coated plate, covered, and incubated for 1-2 hours at 37 degrees. The plate was washed with PBS+0.05% Tween20 three times to remove unbound peptide and fluorescence was measured using the ODYSSEY fluorescent plate reader (LI-COR, Lincoln, Nebr.). The average and standard deviation of four IC-50 values were determined.
In addition, Table 1 lists the relative brightness of each compound relative to ICG which was computed by taking the ratio of ((extinction coefficient)×(quantum yield))/((extinction coefficient of ICG)×(quantum yield of ICG)). […] Spectra for ICG and the IRDye800 conjugates were determined.

[4] = tested on: lymphatics of arms and legs; experiment: second human study: NIR fluorescence lymphatic imaging with intradermal ICG pre- and post-MLD, apparent lymph velocity and propulsion period; settings: intradermal ICG up to 400 μg; vitals 2 h, follow-up calls 24 and 48 h
Text: Twelve normal volunteers and 10 subjects clinically diagnosed with Grade I or II unilateral LE participated and provided informed consent. […] The control subjects consisted of 2 males and 10 females, aged 22-59 years. The LE subjects were all female, aged 18-68 years with half experiencing lower extremity LE and the other half upper extremity LE. The injection sites were cleaned with a surgical scrub, followed by alcohol. Immediately after intradermal injection of imaging contrast agent using a 27 gauge needle, NIR fluorescence images were simultaneously acquired from both the LE and contralateral limbs of LE subjects. For control subjects, bilateral arms were imaged simultaneously in 6 subjects, and bilateral legs were imaged in the other 6 subjects. MLD was performed 30 to 60 minutes after the start of imaging followed by another 30 to 60 minutes of imaging. Vital signs were monitored for 2 hours after fluorescent agent administration and follow-up phone calls to assess subjects' condition were made 24 and 48 hours later. […]
The location and movement of lymphatic fluid containing ICG was imaged simultaneously in both limbs using two custom-built fluorescence imaging systems.

[5] = tested on: lymphatic vessels and nodes; experiment: in vivo lymphatic imaging, dose escalation after intradermal injection at base of tail; set-up: species or system C57BL/6 mice
Method: (§2) Animal studies were conducted using shaved 6-7 week old female, C57BL/6 mice (Harlan, Charles River). […] Each mouse was injected intradermally at the base of the tail with 20 μL of 500 uM ICG or 20 μL of 100 μM dye for IRDye800, IRDy800-MSA and IRDye800-ABD in order to assess their performance in vivo. The injections were all made by the same investigator and the site was covered with sterile tape immediately prior to imaging to prevent camera saturation.
Animals were illuminated by a laser diode (100 mA, 80 mW for 785 nm, Sanyo; Richmond, Ind.) with the light source expanded to a circular area approximately 8 cm in diameter. Fluorescence emission was collected using an Electron Multiplying Charge Coupled Device (EMCCD) camera with a holographic notch-plus band-rejection filter (785-nm center wavelength for ICG) and a bandpass filter (830-nm center wavelength for ICG) placed prior to the lens to reject back-scattered and reflected excitation light. Fluorescence images were acquired with an integration time of 200 ms. For registration purposes, “white light” images were taken by removing the filters and acquiring images over 500 ms integration time. Up to 750 fluorescent images and 3 white light images were acquired immediately after injection on the left and right side of each animal. Statistical analyses of differences in fluorescent intensity were assessed by student t-test in which α=0.05. […] Images were processed using V++ software (Digital Optics; Auckland, New Zealand), and data was analyzed to determine in vivo fluorescent intensities in select regions of interest (ROI) using IMAGEJ (NIH, Bethesda, Md.) and MATLAB (The Mathworks). Statistical analysis was conducted using the student t-test with α=0.05.
In viva lymphatic imaging studies utilizing an escalating dose of IC was done.

[6] = tested on: lymphatics of arms and legs; experiment: first human study: NIR fluorescence lymphatic imaging with intradermal ICG, apparent lymph velocity and propulsion period in control and lymphedema subjects; settings: intradermal ICG up to 400 μg; vitals 2 h, follow-up calls 24 and 48 h
inguinal lymph node = experiment: lymphatic clearance study, fluorescence intensity in inguinal lymph node over time
Method: as §2
Animals were illuminated by a laser diode (100 mA, 80 mW for 785 nm, Sanyo; Richmond, Ind.) with the light source expanded to a circular area approximately 8 cm in diameter. Fluorescence emission was collected using an Electron Multiplying Charge Coupled Device (EMCCD) camera with a holographic notch-plus band-rejection filter (785-nm center wavelength for ICG) and a bandpass filter (830-nm center wavelength for ICG) placed prior to the lens to reject back-scattered and reflected excitation light. Fluorescence images were acquired with an integration time of 200 ms. […] Statistical analyses of differences in fluorescent intensity were assessed by student t-test in which α=0.05. […] Images were processed using V++ software (Digital Optics; Auckland, New Zealand), and data was analyzed to determine in vivo fluorescent intensities in select regions of interest (ROI) using IMAGEJ (NIH, Bethesda, Md.) and MATLAB (The Mathworks). […]

lymphangiogenesis (α9β1) [7] = experiment: […] plug (with/without HGF) mouse model of lymphangiogenesis, NIR fluorescence imaging; assay type: in vivo; settings: 24 hours after intradermal administration
Method: FIG. 20: NIR fluorescent image of an animal model of lymphangiogenesis (top) with a […] plug impregnated with LEC stimulating factor HGF on the right with a control […] plug without HGF on the left. The animal image (top) is taken 24 hours after administration of IRDye800-[…] (SEQ ID NO: 2) showing agent uptake into the […] plug containing LEC stimulating factor HGF and little or no uptake into the […] plug without HGF. When the […] plugs were removed from the animal and imaged, they were then imaged for the presence of IRDye800-[…] (SEQ ID NO: 2).
(§1) This targeting approach can be used to detect the process of lymphangiogenesis in animal models in, for example, drug discovery programs focusing on cessation of tumor lymphangiogenesis (such is associated with cancer metastasis), or as a diagnostic to detect the lymphangiogenesis that occurs in metastatic cancer and other tymphovascular disorders. […] The induced lymphangiogenesis is clearly visualized by the increase in fluorescence 24 hours through […] after the administration of imaging conjugate, IRDye800-[…] […] (SEQ ID NO: 2) was injected intravenously and 24 hours later, NIR fluorescence imaging was conducted to assess increased update associated with those tissues that were the site of Oxazolone application and increased lymphatic vessel densities that are indicative of lymphangiogenesis.

integrin α9β1 on LECs = biological target: T1, integrin α9β1 on LECs (Homo sapiens, UniProt P05556+Q13797); experiment: fluorescence microscopy of LECs stimulated by VEGF-C; assay type: cell-based
T1 construct: LECS stimulated by VEGF-C to express α9β1 on the extracellular membrane; endogenous in cells; host or cells: lymphatic endothelial cells (LECs) incubated with VEGF-C
T1 sequence (Q13797 30-1035): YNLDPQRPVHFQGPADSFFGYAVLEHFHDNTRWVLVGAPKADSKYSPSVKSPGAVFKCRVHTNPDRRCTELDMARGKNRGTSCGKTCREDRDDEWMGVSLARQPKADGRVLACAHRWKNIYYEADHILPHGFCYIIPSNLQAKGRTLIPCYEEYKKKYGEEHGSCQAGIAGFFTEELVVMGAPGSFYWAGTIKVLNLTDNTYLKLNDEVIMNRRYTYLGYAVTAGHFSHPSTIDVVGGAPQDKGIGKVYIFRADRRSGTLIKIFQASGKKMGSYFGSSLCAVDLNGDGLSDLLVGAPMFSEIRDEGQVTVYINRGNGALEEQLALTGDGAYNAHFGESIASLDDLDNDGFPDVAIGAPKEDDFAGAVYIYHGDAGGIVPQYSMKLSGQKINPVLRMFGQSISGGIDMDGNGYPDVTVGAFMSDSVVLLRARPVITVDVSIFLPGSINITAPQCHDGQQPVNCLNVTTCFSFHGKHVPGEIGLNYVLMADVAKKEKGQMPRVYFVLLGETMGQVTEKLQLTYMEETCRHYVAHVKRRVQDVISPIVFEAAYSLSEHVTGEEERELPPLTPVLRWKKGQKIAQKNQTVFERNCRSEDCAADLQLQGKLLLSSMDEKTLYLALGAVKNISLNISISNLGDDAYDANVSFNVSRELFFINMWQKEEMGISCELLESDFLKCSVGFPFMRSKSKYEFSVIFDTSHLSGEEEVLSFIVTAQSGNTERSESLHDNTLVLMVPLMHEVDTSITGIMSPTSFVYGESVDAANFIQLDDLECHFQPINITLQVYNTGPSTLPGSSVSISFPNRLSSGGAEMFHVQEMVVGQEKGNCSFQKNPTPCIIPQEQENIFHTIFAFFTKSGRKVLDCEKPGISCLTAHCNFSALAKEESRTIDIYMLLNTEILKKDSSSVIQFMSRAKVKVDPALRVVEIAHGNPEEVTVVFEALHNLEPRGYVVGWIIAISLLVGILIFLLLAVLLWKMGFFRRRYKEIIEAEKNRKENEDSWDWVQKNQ
T1 sequence (P05556 21-798): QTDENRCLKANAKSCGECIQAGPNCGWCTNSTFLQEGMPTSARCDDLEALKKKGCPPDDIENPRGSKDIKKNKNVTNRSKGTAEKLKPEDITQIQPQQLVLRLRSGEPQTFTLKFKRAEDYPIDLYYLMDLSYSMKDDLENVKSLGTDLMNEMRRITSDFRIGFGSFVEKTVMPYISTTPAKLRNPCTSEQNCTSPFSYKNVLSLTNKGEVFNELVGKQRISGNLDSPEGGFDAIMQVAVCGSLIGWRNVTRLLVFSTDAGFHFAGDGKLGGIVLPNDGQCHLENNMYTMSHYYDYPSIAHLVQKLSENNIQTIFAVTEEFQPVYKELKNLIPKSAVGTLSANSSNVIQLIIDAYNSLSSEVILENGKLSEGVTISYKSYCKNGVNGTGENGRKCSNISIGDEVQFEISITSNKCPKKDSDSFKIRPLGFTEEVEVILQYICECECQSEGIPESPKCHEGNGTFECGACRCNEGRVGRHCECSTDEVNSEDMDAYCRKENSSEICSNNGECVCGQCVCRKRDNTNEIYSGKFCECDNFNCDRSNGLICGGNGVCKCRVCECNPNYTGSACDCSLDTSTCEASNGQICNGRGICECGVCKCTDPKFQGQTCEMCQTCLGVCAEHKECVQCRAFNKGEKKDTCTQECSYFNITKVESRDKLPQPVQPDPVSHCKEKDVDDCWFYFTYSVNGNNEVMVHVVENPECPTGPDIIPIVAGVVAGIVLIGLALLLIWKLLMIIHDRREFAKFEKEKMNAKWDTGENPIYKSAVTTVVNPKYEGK
Text: FIG. 19: Fluorescence microscopy of LECS stimulated by VEGF-C to express α9β1 on the extracellular membrane as stained by (from left to right, top) by (i) DAPI, a nuclear stain, (ii) IRDye800-[…] (SEQ ID NO: 2), the imaging conjugate that targets α9β1, and (iii) a fluorescently labeled antibody that targets the β1 portion of α9β1.
as §1, with “disorders. Lymphangiogenesis and the accompanying activation of LECS are known to be stimulated by vascular endothelial growth factor-C (VEGF-C) or hepatic growth factor (HGF). […] When VEGF-C is not present during incubation, α9β1 (over) expression and IRDye800-[…]” for “disorders.”

lymphangiogenesis (α9β1) [8] = experiment: Oxazolone-induced skin inflammation mouse model, NIR fluorescence imaging; assay type: in vivo; settings: 24 hours after intravenous injection, right inflamed vs left untreated side
Method: The NIR imaging was conducted with intradermal administration of ICG (as shown above in human studies) to image both the right and left side lymphatics. […] Increased vessel density, leakiness, and dilated vessels on the inflamed side as compared to the untreated side of the animal as evident from the lymphatic imaging as compared to the left, untreated side.
The right side of the animal which has greater lymphatic density as indicated by ICG imaging (as shown in FIG. 21) is also associated with increased IRDye800-[…] (SEQ ID NO: 2) fluorescence presumably owing to the stimulation of LECS in the process of lymphangiogenesis to produce α9β1 integrin.
This targeting approach can be used to detect the process of lymphangiogenesis in animal models in, for example, drug discovery programs focusing on cessation of tumor lymphangiogenesis (such is associated with cancer metastasis), or as a diagnostic to detect the lymphangiogenesis that occurs in metastatic cancer and other tymphovascular disorders. Lymphangiogenesis and the accompanying activation of LECS are known to be stimulated by vascular endothelial growth factor-C (VEGF-C) or hepatic growth factor (HGF). […] The induced lymphangiogenesis is clearly visualized by the increase in fluorescence 24 hours through […] after the administration of imaging conjugate, IRDye800-[…] […]

mouse serum albumin [9] = biological target: mouse serum albumin (Mus musculus, UniProt P07724); settings: read-out: IC-50 of unconjugated ABD peptide for albumin; as reported by Dennis et al., 2002; cited from earlier work
mouse serum albumin (Mus musculus, UniProt P07724), sequence (P07724 25-608): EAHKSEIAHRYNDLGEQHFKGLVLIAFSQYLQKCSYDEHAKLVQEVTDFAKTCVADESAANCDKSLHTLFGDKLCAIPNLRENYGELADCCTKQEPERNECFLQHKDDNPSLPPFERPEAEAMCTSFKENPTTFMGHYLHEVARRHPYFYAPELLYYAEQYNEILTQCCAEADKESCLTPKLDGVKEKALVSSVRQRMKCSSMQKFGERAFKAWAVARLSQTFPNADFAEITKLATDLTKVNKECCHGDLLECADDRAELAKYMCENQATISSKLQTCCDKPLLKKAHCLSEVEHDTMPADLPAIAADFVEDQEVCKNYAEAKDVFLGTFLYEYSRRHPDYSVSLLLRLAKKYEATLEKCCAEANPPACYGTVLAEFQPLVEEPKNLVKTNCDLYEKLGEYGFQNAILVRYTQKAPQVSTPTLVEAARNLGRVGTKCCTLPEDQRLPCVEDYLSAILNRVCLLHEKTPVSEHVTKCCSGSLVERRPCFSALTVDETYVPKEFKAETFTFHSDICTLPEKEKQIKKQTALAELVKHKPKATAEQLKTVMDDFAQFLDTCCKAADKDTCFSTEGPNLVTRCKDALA

mouse serum albumin [10] = biological target: T2, mouse serum albumin (mouse, UniProt P07724 25-608); experiment: competitive binding assay on plates coated with mouse serum albumin; unlabeled ABD peptide at 0.05-10 nM mixed with labeled peptide, fluorescence read-out; mean and SD of four IC-50 values
T2 construct: Bought protein; also called MSA

## CC1(C)C(/C=C/C=C/C=C/C=C2\N(CCCCS(=O)(=O)O)c3ccc4ccccc4c3C2(C)C)=[N+](CCCCS(=O)(=O)[O-])c2ccc3ccccc3c21 [ICG, indocyanine green]
[1]
  normal biological half-time: 2-4 min
[2]; ICG in water at 785/830 nm, used as standard
  Quantum Yield (ICG standard): 0.016
[2]; background statement
  maximal absorption: 780 nm
[3]
  Emission maximum: 799
  Excitation maximum: 785
  Extinction Coefficient × 10^4: 8.60 +/− 0.35
  Lifetime: 0.59 +/− 0.049
[4]
  adverse events associated with the imaging agent: No adverse events
[5]; 20 μL intradermal at base of tail, mice
  concentration sufficient to clearly depict lymphatic architecture in vivo: 500 µM
[5]; ICG at 500 μM
  appearance of lymphatic vasculature: brighter and more prominent
[5]; ICG at 20 and 100 uM
  appearance of lymphatic vessels and nodes: dim and difficult to discern
[6]
  adverse events associated with the drug: No adverse events

## CC[C@H](C)[C@H](NC(=O)[C@H](CC(C)C)NC(=O)[C@H](CCCNC(=N)N)NC(=O)CCCCCN1C(=CC=C2CCCC(C=CC3=[N+](CCCCS(=O)(=O)[O-])c4ccc(S(=O)(=O)O)cc4C3(C)C)=C2Oc2ccc(S(=O)(=O)O)cc2)C(C)(C)c2cc(S(=O)(=O)O)ccc21)C(=O)N[C@@H](CCC(=O)O)C(=O)N[C@@H](CC(=O)O)C(=O)N[C@H](C(=O)N[C@H]1CSSC[C@@H](C(=O)N[C@@H](CC(C)C)C(=O)N[C@@H](Cc2c[nH]c3ccccc23)C(=O)N[C@@H](CCC(=O)O)C(=O)N[C@@H](CC(=O)O)C(=O)N[C@@H](CC(=O)O)C(=O)O)NC(=O)CNC(=O)[C@H](Cc2c[nH]c3ccccc23)NC(=O)[C@H](CCCNC(=N)N)NC(=O)[C@@H]2CCCN2C(=O)[C@H](CC(C)C)NC1=O)[C@@H](C)CC [IRDye800-ABD] (IRDye800CW-RLIEDICLPRWGCLWEDD-OH; disulfide 7-13; N-terminus and C-terminus assumed)
[3]
  Emission maximum: 803
  Excitation maximum: 780
  Extinction Coefficient × 10^4: 54.836 +/− 0.25
  Lifetime: 0.92 +/− 0.057
[3]; (extinction coefficient × quantum yield) ratio to ICG
  Intensity relative to ICG: 25.9
[3]; at 785/830 (ex/em), comparative method with ICG as standard
  Quantum Yield: 0.0647 +/− 0.0007
Inguinal lymph node; 0.5 to 50 min after injection
  lymphatic clearance from inguinal lymph node: slowed clearance
Inguinal lymph node; initial time after intradermal injection
  fluorescence intensity in inguinal node, initially: started out with a lower intensity

## IRDye800-GGGPLAEIDGIELTY: IRDye800 conjugated to tenascin C derived integrin α9β1 binding peptide GGGPLAEIDGIELTY (SEQ ID NO: 2)
Lymphangiogenesis (α9β1) [7]
  fluorescence of control MATRIGEL plug with no HGF: did not show appreciable fluorescence
  fluorescence of resected MATRIGEL plug with HGF: showed fluorescence
Integrin α9β1 on LECs; VEGF-C for 30 minutes, co-stain with antibody to β1
  binding to LECs incubated in VEGF-C: co-localized with the antibody to β1
Integrin α9β1 on LECs; VEGF-C not present during incubation
  binding to LECs without VEGF-C: not seen
Lymphangiogenesis (α9β1) [8]
  fluorescence in region of Oxazolone skin inflammation: increased fluorescence

## RLIEDICLPRWGCLWEDD [ABD peptide]
Mouse serum albumin [9]
  IC50: 5 nM

B1: IRDye800-ABD (albumin binding domain peptide RLIEDICLPRWGCLWEDD conjugated to IRDye800CW) (peptide)
peptide: RLIEDICLPRWGCLWEDD
modifications: cysteine pairing not given here; also: IRDye800CW label attached via NHS ester, site not given here
notes: Made by adding a 1.75 times molar excess of IRDye800CW to the ABD peptide, then HPLC purified; also called IRDye800-ABD conjugate; ABD-IRDye800 conjugate
Mouse serum albumin [10]
  IC50: 1.19 nM
